Patent US8357811B2, “Crystalline forms of docetaxel and process for preparation thereof” (ScnioPharm Singapore PTE Ltd., priority 2006, dated 2013)

Assay: Stability of crystalline anhydrous docetaxel and docetaxel trihydrate in solvents (FIG. 2)
Format: physicochemical
Details: for stability in co-water solvent: co-water solvent (ACN/water/acetic acid) vs non-water solvent
Text: FIG. 2 illustrates the stability of crystalline anhydrous docetaxel and docetaxel trihydrate.

Structure (SMILES): CC(=O)O[C@@]12CO[C@@H]1C[C@H](O)[C@@]1(C)C(=O)[C@H](O)C3=C(C)[C@@H](OC(=O)[C@H](O)[C@@H](NC(=O)OC(C)(C)C)c4ccccc4)C[C@@](O)([C@@H](OC(=O)c4ccccc4)[C@H]21)C3(C)C [anhydrous form of docetaxel, docetaxel]
- stability in acetonitrile compared with acetonitrile/water (9/1) (acetonitrile vs acetonitrile/water (9/1)): more stable in acetonitrile than in acetonitrile/water (9/1)
- stability compared with trihydrated form (1883-12-11, 1883-12-21, 2016-109-05) (in acetonitrile, FIG. 2): more stable
- stability compared with trihydrated form (see FIG. 2, solvent not stated at this place): more stable than trihydrated form

Structure (SMILES): CC(=O)O[C@@]12CO[C@@H]1C[C@H](O)[C@@]1(C)C(=O)[C@H](O)C3=C(C)[C@@H](OC(=O)[C@H](O)[C@@H](NC(=O)OC(C)(C)C)c4ccccc4)C[C@@](O)([C@@H](OC(=O)c4ccccc4)[C@H]21)C3(C)C [docetaxel]
- growth of 7-epi-docetaxel on addition of acetic acid (addition of acetic acid): can be suppressed by the addition of acetic acid
- stability in co-water solvent: less stable in co-water solvent
- stability in co-water solvent (listed as Docetaxel): more stable in non-water solvent than co-water solvent
- generation of impurity 7-epi-docetaxel (co-water solvent vs non-water solvent): generated more rapidly in co-water solvent than in non-water solvent
